Data published in patent publication US11000033B2, “Ketone or oxime compound, and herbicide” (NISSAN CHEMICAL CORPORATION, priority 2014, dated 2021).

Legend:
Type in all cases: in vivo
[1] = system: directly sowed rice plant; assay: Test Example 3: effect on crop by foliage application, Wagner pot (symbol b); details: application herbicide amount 320 g/ha, Table 24
Summary of the method: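 Alluvial soil in a 1/10000-are Wagner pot was flooded to a water depth of 0.1–0.5 cm. Echinochloa crus-galli var. crus-galli, Leptochloa chinensis, Cyperus difformis and rice were sown into it and grown in a greenhouse at 25–30 °C.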

[2] = system: Digitaria ciliaris; assay: Test Example 4: herbicidal effect by soil treatment (symbol F); details: application herbicide amount 320 g/ha
Summary of the method: (§1)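 Seeds were sown in sterilized diluvial soil, covered with about 1.5 cm of soil, and the soil surface was sprayed with a water-diluted emulsion of the compound at a predetermined rate. Plants grew in a greenhouse at 25° C. to 30° C.; effects were scored visually 3 weeks after application.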

[3] = system: Echinochloa crus-galli var. crus-galli; assay: Test Example 4: herbicidal effect by soil treatment (symbol H); details: application herbicide amount 320 g/ha
Summary of the method: as §1

[4] = system: Alopecurus myosuroides; assay: Test Example 4: herbicidal effect by soil treatment (symbol J); details: application herbicide amount 320 g/ha
Summary of the method: as §1

[5] = system: Lolium multiflorum Lam.; assay: Test Example 4: herbicidal effect by soil treatment (symbol K); details: application herbicide amount 320 g/ha
Summary of the method: as §1

[6] = system: Stellaria media; assay: Test Example 4: herbicidal effect by soil treatment (symbol P); details: application herbicide amount 320 g/ha
Summary of the method: as §1

[7] = system: Galium spurium; assay: Test Example 4: herbicidal effect by soil treatment (symbol Q); details: application herbicide amount 320 g/ha
Summary of the method: as §1

[8] = system: Veronica persica; assay: Test Example 4: herbicidal effect by soil treatment (symbol R); details: application herbicide amount 320 g/ha
Summary of the method: as §1

[9] = system: corn; assay: Test Example 4: effect on crop by soil treatment (symbol c); details: application herbicide amount 320 g/ha
Summary of the method: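 Soil-treatment setup: crop and weed seeds were spot-sown into sterilized diluvial soil, then buried beneath approximately 1.5 cm of it, and the boxes were housed in a 25–30° C. greenhouse.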

[10] = system: soybean; assay: Test Example 4: effect on crop by soil treatment (symbol d); details: application herbicide amount 320 g/ha
Summary of the method: (§2)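 Crop seed is sown in spots together with several weed species in a box of sterilized diluvial soil. It is covered by about 1.5 cm of soil and kept in a greenhouse held between 25° C. and 30° C.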

[11] = system: rice; assay: Test Example 4: effect on crop by soil treatment (symbol b); details: application herbicide amount 320 g/ha
Summary of the method: as §2

[12] = system: beet; assay: Test Example 4: effect on crop by soil treatment (symbol f); details: application herbicide amount 320 g/ha
Summary of the method: as §2

[13] = system: rapeseed; assay: Test Example 4: effect on crop by soil treatment (symbol g); details: application herbicide amount 320 g/ha
Summary of the method: as §2

[14] = system: Digitaria ciliaris; assay: Test Example 5: herbicidal effect by foliage application, plastic box (symbol F); details: 320 g/ha, 3 weeks after application
Summary of the method: (§3)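 Greenhouse foliar test: seedlings at 14 days, grown 25° C. to 30° C. in sterilized diluvial soil; compound applied as an aqueous dilution of an emulsion; response read 3 weeks after spraying.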

[15] = system: Setaria viridis; assay: Test Example 5: herbicidal effect by foliage application, plastic box (symbol G); details: 320 g/ha, 3 weeks after application
Summary of the method: as §3

[16] = system: Avena fatua; assay: Test Example 5: herbicidal effect by foliage application, plastic box (symbol I); details: 320 g/ha, 3 weeks after application
Summary of the method: as §3

[17] = system: Apera spica-venti; assay: Test Example 5: herbicidal effect by foliage application, plastic box (symbol L); details: 320 g/ha, 3 weeks after application
Summary of the method: as §3

[18] = system: Abutilon theophrasti; assay: Test Example 5: herbicidal effect by foliage application, plastic box (symbol M); details: 320 g/ha, 3 weeks after application
Summary of the method: as §3

[19] = system: Chenopodium album; assay: Test Example 5: herbicidal effect by foliage application, plastic box (symbol O); details: 320 g/ha, 3 weeks after application
Summary of the method: as §3

[20] = system: Stellaria media; assay: Test Example 5: herbicidal effect by foliage application, plastic box (symbol P); details: 320 g/ha, 3 weeks after application
Summary of the method: as §3

[21] = system: Galium spurium; assay: Test Example 5: herbicidal effect by foliage application, plastic box (symbol Q); details: 320 g/ha, 3 weeks after application
Summary of the method: as §3

[22] = system: Veronica persica; assay: Test Example 5: herbicidal effect by foliage application, plastic box (symbol R); details: 320 g/ha, 3 weeks after application
Summary of the method: as §3

[23] = system: rice plant; assay: Test Example 5: effect on crop by foliage application, plastic box (symbol b); details: 320 g/ha, 3 weeks after application
Summary of the method: (§4)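 In a plastic box 7 cm deep filled with sterilized diluvial soil, seeds of crops and weeds such as Digitaria ciliaris, Avena fatua and Amaranthus retroflexus are sown in spots and covered with about 1.5 cm of soil before greenhouse growth at 25–30° C.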

[24] = system: wheat; assay: Test Example 5: effect on crop by foliage application, plastic box (symbol e); details: 320 g/ha, 3 weeks after application
Summary of the method: as §4

[25] = system: beet; assay: Test Example 5: effect on crop by foliage application, plastic box (symbol f); details: 320 g/ha, 3 weeks after application
Summary of the method: as §4

CC(CC1CC(OC(=O)N2CCOCC2)=C(c2c(C)cc(-c3ccc(Cl)cc3)cc2C)C1=O)=NOCC(F)(F)F (mixture of isomers) [9-025]
b (directly sowed rice plant) effect on crop grade [1]: 2 (Herbicidal ratio of 20% or higher and lower than 40%)
Herbicidal effect grade, F: Digitaria ciliaris [2]: 2 (Herbicidal ratio of 20% or higher and lower than 40%)
Herbicidal effect grade, H: Echinochloa crus-galli var. crus-galli [3]: 0 (Herbicidal ratio of 5% or lower (almost no effect))
Herbicidal effect grade, J: Alopecurus myosuroides [4]: 0 (Herbicidal ratio of 5% or lower (almost no effect))
Herbicidal effect grade, K: Lolium multiflorum Lam. [5]: 0 (Herbicidal ratio of 5% or lower (almost no effect))
Herbicidal effect grade, P: Stellaria media [6]: 0 (Herbicidal ratio of 5% or lower (almost no effect))
Herbicidal effect grade, Q: Galium spurium [7]: 0 (Herbicidal ratio of 5% or lower (almost no effect))
Herbicidal effect grade, R: Veronica persica [8]: 0 (Herbicidal ratio of 5% or lower (almost no effect))
Effect on crop grade, c: corn [9]: 0 (Herbicidal ratio of 5% or lower (almost no effect))
Effect on crop grade, d: soybean [10]: 0 (Herbicidal ratio of 5% or lower (almost no effect))
Effect on crop grade, b: directly sowed rice plant [11]: 0 (Herbicidal ratio of 5% or lower (almost no effect))
Effect on crop grade, f: beet [12]: 0 (Herbicidal ratio of 5% or lower (almost no effect))
Effect on crop grade, g: rapeseed [13]: 0 (Herbicidal ratio of 5% or lower (almost no effect))
F: Digitaria ciliaris, herbicidal effect grade [14]: 5 (Herbicidal ratio of 90% or more (almost completely withered))
G: Setaria viridis, herbicidal effect grade [15]: 4 (Herbicidal ratio of 70% or higher and lower than 90%)
I: Avena fatua, herbicidal effect grade [16]: 3 (Herbicidal ratio of 40% or higher and lower than 70%)
L: Apera spica-venti, herbicidal effect grade [17]: 0 (Herbicidal ratio of 5% or lower (almost no effect))
M: Abutilon theophrasti, herbicidal effect grade [18]: 0 (Herbicidal ratio of 5% or lower (almost no effect))
O: Chenopodium album, herbicidal effect grade [19]: 0 (Herbicidal ratio of 5% or lower (almost no effect))
P: Stellaria media, herbicidal effect grade [20]: 0 (Herbicidal ratio of 5% or lower (almost no effect))
Q: Galium spurium, herbicidal effect grade [21]: 0 (Herbicidal ratio of 5% or lower (almost no effect))
R: Veronica persica, herbicidal effect grade [22]: 0 (Herbicidal ratio of 5% or lower (almost no effect))
b: directly sowed rice plant, effect on crop grade [23]: 0 (Herbicidal ratio of 5% or lower (almost no effect))
e: wheat, effect on crop grade [24]: 0 (Herbicidal ratio of 5% or lower (almost no effect))
f: beet, effect on crop grade [25]: 0 (Herbicidal ratio of 5% or lower (almost no effect))
